According to paper PMC8715119, “Second-generation non-hematopoietic erythropoietin-derived peptide for neuroprotection” (Redox Biology, 2021):

Experiments:
cleaved Caspase 3 = test: Immunoblot of cleaved Caspase 3 after hypoxia and re-oxygenation; assay type: cell-based, mouse; conditions: HT-22 cells; reEPO 0.5 IU/ml, ML1-h3 1 ng/ml; normalized by β-Actin; n = 6
Procedure: PC12 or HT-22 cells were lysed in 100 mM Tris-Cl (pH 6.8) with 4% SDS. The lysates were loaded onto sodium dodecyl sulfate-polyacrylamide gel electrophoresis (SDS-PAGE) (8–10%), and the proteins were transferred onto the nitrocellulose membrane. The membrane was blocked with 0.1% TBST and 5% non-fat dry milk at 25°C for 30 min. Primary antibodies were diluted in 0.1% TBST and 3% bovine serum albumin (BSA). The primary antibodies included anti-pJAK2 (#3776, Cell Signaling Technology, USA), anti-JAK2 (#3230, Cell Signaling Technology, USA), anti-pSTAT5 (#9351, Cell Signaling Technology, USA), anti-STAT5 ([…], Cell Signaling Technology, USA), anti-pAKT (#9271, Cell Signaling Technology, USA), anti-AKT (#9272, Cell Signaling Technology, USA), anti-pERK (#9101, Cell Signaling Technology, USA) anti-ERK (#9102, Cell Signaling Technology, USA), anti-EPOR (#sc-365662, Santa Cruz Biotechnology, USA), anti-β-Actin (Santa Cruz Biotechnology, USA), anti-Bax (Santa Cruz Biotechnology, USA), anti-cleaved Casp3 (Cell Signaling Technology, USA), and anti-cleaved Parp1 (Cell Signaling Technology, USA).
The HT-22 cells were seeded onto 96-well or 6-well plates. The next day, HT-22 cells were placed inside a sealed air-tight container consisting of an anaeropack (Mitsubishi Gas Company, Tokyo, Japan), which can induce a hypoxic atmosphere by absorbing oxygen and generating carbon dioxide. […]

HT-22 cells [1] = test: ROS level by H2DCFDA after hypoxia and re-oxygenation; assay type: cell-based, mouse; conditions: reEPO 0.5 IU/ml, ML1-h3 1 ng/ml, n = 12
Procedure: (§1) HT-22 cells (kindly provided by Prof. Gil-Saeng Jeong in Keimyung University), an immortalized mouse hippocampal cell line, were cultured at 37°C and 5% CO2 in Dulbecco's modified eagle medium (DMEM, Invitrogen, USA) supplemented with 10% FBS and 1% penicillin/streptomycin at 37°C and 5% CO2.
The cellular ROS level was measured using 2′,7′-dichlorodihydrofluorescein diacetate (H2DCFDA) (#D399, Invitrogen, USA). The cells were incubated with 5 μM H2DCFDA in PBS for 30 min, washed with PBS, and then resuspended in the medium for 2 h. After treatment of H2O2 without or with reEPO, or peptide, we monitored the oxidative stress by measuring the fluorescence intensities of H2DCFDA by using excitation and emission wavelengths of 485 nm and 535 nm, respectively.
(§2) The HT-22 cells were seeded onto 96-well or 6-well plates. The next day, HT-22 cells were placed inside a sealed air-tight container consisting of an anaeropack (Mitsubishi Gas Company, Tokyo, Japan), which can induce a hypoxic atmosphere by absorbing oxygen and generating carbon dioxide. The cells were maintained in the hypoxic condition at 37°C for 18 h and re-oxygenated for 3 h at 37°C and 5% CO2. Subsequently, the cells were treated with reEPO or the peptides for 19 h before viability analysis.

[2] = system: differentiated neuronal PC12 cells; test: Cell viability (MTS) under H2O2-induced oxidative stress; assay type: cell-based, rat; conditions: H2O2 for 24 h; reEPO 0.5 IU/ml, ML1 1 ng/ml or ML1 analogs; n = 5; Fig. 4a
Procedure: PC12 cells (#CRL-1721, ATCC, USA), a rat pheochromocytoma cell line derived from the adrenal medulla (#CRL-1721, ATCC, USA), were seeded on a dish, which was coated by poly L-lysine (0.01%; Sigma Chemical Co., USA), and grown in RPMI 1640 medium (#11875093, Gibco, USA), supplemented with 10% heat-inactivated horse serum (#26050088, Gibco, USA), 5% fetal bovine serum (FBS) (#SH30919.03, Hyclone, USA), and 1% penicillin/streptomycin at 37°C with 5% CO2. For neuronal differentiation, PC12 cells were plated at a density of 1.25x10^3 cell/cm^2 into 96-well plates coated with collagen 1 (#354236, BD Biosciences, USA) and grown in RPMI 1640 medium supplemented with 50 ng/ml nerve growth factor (NGF) (BD Biosciences, USA) and 0.5% FBS for 10 days. The NGF-supplemented media was replaced with fresh media every 3 days during neuronal differentiation.
Cell viability was evaluated by 3-[(4,5-dimethylthiazol-2-yl)-5,3-carboxymethoxyphenyl]-2-(4-sulfophenyl)-2H tetrazolium, inner salt (MTS) reduction assay (CellTiter 96 Aqueous One Solution Cell Proliferation Assay, Promega, Madison, WI, USA). Briefly, differentiated neuronal-PC12 cells were treated with H2O2 (300 μM) with or without reEPO and peptides for 24 h. The PC12 cells were washed with PBS; 20 ul MTS solution was added to each well with 100 μl PBS, and the cells were incubated for 3 h at 37°C and 5% CO2. The intracellular soluble formazan produced by cellular reduction of the MTS was determined by recording the absorbance at 490 nm using a microplate reader (VersaMax, Molecular Devices, USA). Cell proliferation was also evaluated by the MTS assay. Undifferentiated PC12 cells were seeded into a 96-well plate (5x10^4 cells/well). The next day, the initial cell number was counted; after 48 h, under low FBS concentration (0.5%), with or without reEPO and peptides, cell number was measured by the MTS assay.

HT-22 cells [3] = test: TUNEL assay after hypoxia and re-oxygenation; assay type: cell-based, mouse; conditions: hypoxia 18 h, re-oxygenation 3 h; reEPO 0.5 IU/ml, ML1-h3 1 ng/ml; n = 5
Procedure: as §1, §2
We fixed the cells with 4% paraformaldehyde in PBS on a slide at 25°C, washed them with PBS, and then treated them with 3% H2O2 in methanol for 10 min. After washing with PBS, we treated the cells with 0.1% sodium citrate in 0.1% Triton X-100 on sample slides for 2 min on ice and washed again with PBS. Subsequently, we treated the cells with the TUNEL reaction mixture for 60 min at 37°C in the dark. After washing thrice with PBS, 50 μl of TUNEL peroxidase (POD) was added to the slides for 30 min at 37°C in the dark. […]

reEPO: Recombinant human EPO (Epoetin-α, CJ HealthCare Corporation)
Level of cleaved Caspase 3 under H/R (cleaved Caspase 3): efficiently reduced the levels of Bax, cleaved Caspase 3
ROS level induced by H/R (HT-22 cells [1]): decreased ROS level induced by H/R
Cell death under H2O2-induced oxidative stress (cell viability) [2]: significantly suppressed the cell death
TUNEL-positive cells under H/R (HT-22 cells [3]): dramatically decreased the TUNEL-positive cells
